Experiments:
[1] = test system: Staphylococcus epidermidis; experiment: Antibacterial activity against Staphylococcus epidermidis HK6966/08 after 24 hrs by broth microdilution method; type: functional; details: HK6966/08, 24 h
Candida albicans [2] = experiment: Antifungal activity against Candida albicans ATCC 44859 after 48 hrs by broth microdilution method; type: functional; details: ATCC 44859, 48 h
Mycobacterium avium [3] = experiment: Antimycobacterial activity against Mycobacterium avium CNCTC My 330/80 after 21 days by micromethod; type: functional; details: CNCTC My 330/80, 504 h
Staphylococcus aureus [4] = experiment: Antibacterial activity against methicillin-resistant Staphylococcus aureus HK5996/08 after 24 hrs by broth microdilution method; type: functional; details: HK5996/08, 24 h
Pseudomonas aeruginosa [5] = experiment: Antibacterial activity against Pseudomonas aeruginosa ATCC 9027 after 24 hrs by broth microdilution method; type: functional; details: ATCC 9027, 24 h
Escherichia coli [6] = experiment: Antibacterial activity against Escherichia coli ATCC 8739 after 24 hrs by broth microdilution method; type: functional; details: ATCC 8739, 24 h
Escherichia coli [7] = experiment: Antibacterial activity against Escherichia coli ATCC 8739 after 48 hrs by broth microdilution method; type: functional; details: ATCC 8739, 48 h
Nakaseomyces glabratus [8] = experiment: Antifungal activity against Candida glabrata 20/I after 48 hrs by broth microdilution method; type: functional
Klebsiella pneumoniae [9] = experiment: Antibacterial activity against Klebsiella pneumoniae HK11750/08 after 24 hrs by broth microdilution method; type: functional; details: HK11750/08, 24 h
Trichosporon asahii [10] = experiment: Antifungal activity against Trichosporon asahii 1188 after 24 hrs by broth microdilution method; type: functional; details: Trichosporon asahii, 1188, 24 h
[11] = test system: Trichophyton mentagrophytes; experiment: Antifungal activity against Trichophyton mentagrophytes 445 after 120 hrs by broth microdilution method; type: functional; details: Trichophyton mentagrophytes, 445, 120 h
Lichtheimia corymbifera [12] = experiment: Antifungal activity against Absidia corymbifera 272 after 24 hrs by broth microdilution method; type: functional; details: Lichtheimia corymbifera, 272, 24 h
Mycobacterium avium [13] = experiment: Antimycobacterial activity against Mycobacterium avium CNCTC My 330/80 after 14 days by micromethod; type: functional; details: CNCTC My 330/80, 336 h
Mycobacterium kansasii [14] = experiment: Antimycobacterial activity against Mycobacterium kansasii isolate 6509/96 after 14 days by micromethod; type: functional; details: isolate 6509/96, 336 h
Enterococcus sp. [15] = experiment: Antibacterial activity against Enterococcus sp. HK14365/08 after 24 hrs by broth microdilution method; type: functional; details: HK14365/08, 24 h
CHO-K1 = experiment: Cytotoxicity against CHOK1 cells after 24 hrs by MTT assay; type: cell-based; details: Cricetulus griseus, CHO-K1, 24 h
Aspergillus fumigatus [16] = experiment: Antifungal activity against Aspergillus fumigatus 231 after 24 hrs by broth microdilution method; type: functional; details: Aspergillus fumigatus, 231, 24 h
Klebsiella pneumoniae [17] = experiment: Antibacterial activity against Klebsiella pneumoniae HK11750/08 after 48 hrs by broth microdilution method; type: functional; details: HK11750/08, 48 h
Mycobacterium kansasii [18] = experiment: Antimycobacterial activity against Mycobacterium kansasii isolate 6509/96 after 21 days by micromethod; type: functional; details: isolate 6509/96, 504 h
Staphylococcus aureus [19] = experiment: Antibacterial activity against methicillin-resistant Staphylococcus aureus HK5996/08 after 48 hrs by broth microdilution method; type: functional; details: HK5996/08, 48 h
Klebsiella pneumoniae [20] = experiment: Antibacterial activity against extended spectrum beta-lactamase producing Klebsiella pneumoniae HK14368/08 after 24 hrs by broth microdilution method; type: functional; details: HK14368/08, 24 h
[21] = test system: Trichophyton mentagrophytes; experiment: Antifungal activity against Trichophyton mentagrophytes 445 after 72 hrs by broth microdilution method; type: functional; details: Trichophyton mentagrophytes, 445, 72 h
Lichtheimia corymbifera [22] = experiment: Antifungal activity against Absidia corymbifera 272 after 48 hrs by broth microdilution method; type: functional; details: Lichtheimia corymbifera, 272, 48 h
Trichosporon asahii [23] = experiment: Antifungal activity against Trichosporon asahii 1188 after 48 hrs by broth microdilution method; type: functional; details: Trichosporon asahii, 1188, 48 h
[24] = test system: Mycobacterium tuberculosis; experiment: Antimycobacterial activity against Mycobacterium tuberculosis H37Rv CNCTC My 331/88 after 21 days by micromethod; type: functional; details: H37Rv CNCTC My 331/88, 504 h
Mycobacterium kansasii [25] = experiment: Antimycobacterial activity against Mycobacterium kansasii CNCTC My 235/80 after 14 days by micromethod; type: functional; details: CNCTC My 235/80, 336 h
[26] = test system: Staphylococcus epidermidis; experiment: Antibacterial activity against Staphylococcus epidermidis HK6966/08 after 48 hrs by broth microdilution method; type: functional; details: HK6966/08, 48 h
Aspergillus fumigatus [27] = experiment: Antifungal activity against Aspergillus fumigatus 231 after 48 hrs by broth microdilution method; type: functional; details: Aspergillus fumigatus, 231, 48 h
Mycobacterium kansasii [28] = experiment: Antimycobacterial activity against Mycobacterium kansasii CNCTC My 235/80 after 7 days by micromethod; type: functional; details: CNCTC My 235/80, 168 h
Mycobacterium kansasii [29] = experiment: Antimycobacterial activity against Mycobacterium kansasii isolate 6509/96 after 7 days by micromethod; type: functional; details: isolate 6509/96, 168 h
[30] = test system: Mycobacterium tuberculosis; experiment: Antimycobacterial activity against Mycobacterium tuberculosis H37Rv CNCTC My 331/88 after 14 days by micromethod; type: functional; details: H37Rv CNCTC My 331/88, 336 h
Staphylococcus aureus [31] = experiment: Antibacterial activity against Staphylococcus aureus ATCC 6538 after 48 hrs by broth microdilution method; type: functional; details: ATCC 6538, 48 h
Pichia kudriavzevii [32] = experiment: Antifungal activity against Candida krusei E28 after 48 hrs by broth microdilution method; type: functional; details: E28, 48 h
Candida albicans [33] = experiment: Antifungal activity against Candida albicans ATCC 44859 after 24 hrs by broth microdilution method; type: functional; details: ATCC 44859, 24 h
Staphylococcus aureus [34] = experiment: Antibacterial activity against Staphylococcus aureus ATCC 6538 after 24 hrs by broth microdilution method; type: functional; details: ATCC 6538, 24 h
Candida tropicalis [35] = experiment: Antifungal activity against Candida tropicalis 156 after 24 hrs by broth microdilution method; type: functional; details: Candida tropicalis, 156, 24 h
Mycobacterium kansasii [36] = experiment: Antimycobacterial activity against Mycobacterium kansasii CNCTC My 235/80 after 21 days by micromethod; type: functional; details: CNCTC My 235/80, 504 h
Candida tropicalis [37] = experiment: Antifungal activity against Candida tropicalis 156 after 48 hrs by broth microdilution method; type: functional; details: Candida tropicalis, 156, 48 h
Pseudomonas aeruginosa [38] = experiment: Antibacterial activity against Pseudomonas aeruginosa ATCC 9027 after 48 hrs by broth microdilution method; type: functional; details: ATCC 9027, 48 h
Enterococcus sp. [39] = experiment: Antibacterial activity against Enterococcus sp. HK14365/08 after 48 hrs by broth microdilution method; type: functional; details: HK14365/08, 48 h
Pichia kudriavzevii [40] = experiment: Antifungal activity against Candida krusei E28 after 24 hrs by broth microdilution method; type: functional; details: E28, 24 h
Nakaseomyces glabratus [41] = experiment: Antifungal activity against Candida glabrata 20/I after 24 hrs by broth microdilution method; type: functional
Klebsiella pneumoniae [42] = experiment: Antibacterial activity against extended spectrum beta-lactamase producing Klebsiella pneumoniae HK14368/08 after 48 hrs by broth microdilution method; type: functional; details: HK14368/08, 48 h

O=[N+]([O-])c1cc(-c2nnn(Cc3ccc(Br)cc3)n2)cc([N+](=O)[O-])c1
62.5 µM: MIC (Staphylococcus aureus [31]) | MIC (Staphylococcus aureus [34])
55 µM: IC50 (CHO-K1)
0.25 µM: MIC99 [24] | MIC99 (Mycobacterium kansasii [28]) | MIC99 (Mycobacterium kansasii [29]) | MIC99 [30]
31.2 µM: MIC [1] | MIC [26]
> 500 µM: MIC (Candida albicans [2]) | MIC (Nakaseomyces glabratus [8]) | MIC (Trichosporon asahii [10]) | MIC [11] | MIC (Lichtheimia corymbifera [12]) | MIC (Aspergillus fumigatus [16]) | MIC [21] | MIC (Lichtheimia corymbifera [22]) | MIC (Trichosporon asahii [23]) | MIC (Aspergillus fumigatus [27]) | MIC (Pichia kudriavzevii [32]) | MIC (Candida albicans [33]) | MIC (Candida tropicalis [35]) | MIC (Candida tropicalis [37]) | MIC (Pichia kudriavzevii [40]) | MIC (Nakaseomyces glabratus [41])
4 µM: MIC99 (Mycobacterium avium [13])
> 125 µM: MIC (Staphylococcus aureus [4]) | MIC (Pseudomonas aeruginosa [5]) | MIC (Escherichia coli [6]) | MIC (Escherichia coli [7]) | MIC (Klebsiella pneumoniae [9]) | MIC (Enterococcus sp. [15]) | MIC (Klebsiella pneumoniae [17]) | MIC (Staphylococcus aureus [19]) | MIC (Klebsiella pneumoniae [20]) | MIC (Pseudomonas aeruginosa [38]) | MIC (Enterococcus sp. [39]) | MIC (Klebsiella pneumoniae [42])
1 µM: MIC99 (Mycobacterium kansasii [14]) | MIC99 (Mycobacterium kansasii [18]) | MIC99 (Mycobacterium kansasii [25]) | MIC99 (Mycobacterium kansasii [36])
8 µM: MIC99 (Mycobacterium avium [3])

Cn1nnnc1SCn1nnc(-c2cc([N+](=O)[O-])cc([N+](=O)[O-])c2)n1
> 500 µM: MIC (Candida albicans [2]) | MIC (Staphylococcus aureus [4]) | MIC (Pseudomonas aeruginosa [5]) | MIC (Escherichia coli [6]) | MIC (Escherichia coli [7]) | MIC (Nakaseomyces glabratus [8]) | MIC (Klebsiella pneumoniae [9]) | MIC (Trichosporon asahii [10]) | MIC [11] | MIC (Lichtheimia corymbifera [12]) | MIC (Aspergillus fumigatus [16]) | MIC (Klebsiella pneumoniae [17]) | MIC (Staphylococcus aureus [19]) | MIC (Klebsiella pneumoniae [20]) | MIC [21] | MIC (Lichtheimia corymbifera [22]) | MIC (Trichosporon asahii [23]) | MIC (Aspergillus fumigatus [27]) | MIC (Staphylococcus aureus [31]) | MIC (Pichia kudriavzevii [32]) | MIC (Candida albicans [33]) | MIC (Staphylococcus aureus [34]) | MIC (Candida tropicalis [35]) | MIC (Candida tropicalis [37]) | MIC (Pseudomonas aeruginosa [38]) | MIC (Pichia kudriavzevii [40]) | MIC (Nakaseomyces glabratus [41]) | MIC (Klebsiella pneumoniae [42])
2 µM: MIC99 [24] | MIC99 [30]
16 µM: MIC99 (Mycobacterium kansasii [28]) | MIC99 (Mycobacterium kansasii [29])
500 µM: MIC (Enterococcus sp. [15]) | MIC (Enterococcus sp. [39])
32 µM: MIC99 (Mycobacterium avium [3]) | MIC99 (Mycobacterium avium [13]) | MIC99 (Mycobacterium kansasii [14]) | MIC99 (Mycobacterium kansasii [18]) | MIC99 (Mycobacterium kansasii [25]) | MIC99 (Mycobacterium kansasii [36])
125 µM: MIC [1] | MIC [26]

OC(Cn1cncn1)(Cn1cncn1)c1ccc(F)cc1F [FLUCONAZOLE]
> 500 µM: MIC (Lichtheimia corymbifera [12]) | MIC (Aspergillus fumigatus [16])
105 µM: MIC [21] | MIC (Pichia kudriavzevii [40])
210 µM: MIC (Trichosporon asahii [10])
1.6 µM: MIC (Candida tropicalis [35])
0.82 µM: MIC (Candida albicans [33])

C[C@@H]1[C@H](O)[C@@H](C)/C=C/C=C/C=C/C=C/C=C/C=C/C=C/[C@H](O[C@@H]2O[C@H](C)[C@@H](O)[C@H](N)[C@@H]2O)C[C@@H]2O[C@](O)(C[C@@H](O)C[C@@H](O)[C@H](O)CC[C@@H](O)C[C@@H](O)CC(=O)O[C@H]1C)C[C@H](O)[C@H]2C(=O)O [AMPHOTERICIN B]
1 µM: MIC (Lichtheimia corymbifera [12]) | MIC (Pichia kudriavzevii [40])
0.27 µM: MIC (Trichosporon asahii [10])
0.54 µM: MIC (Aspergillus fumigatus [16]) | MIC [21] | MIC (Candida albicans [33]) | MIC (Candida tropicalis [35]) | MIC (Nakaseomyces glabratus [41])

From ChEMBL document CHEMBL4011590, “Structure-activity relationship studies on 3,5-dinitrophenyl tetrazoles as antitubercular agents” (Eur J Med Chem, 2017)
